This assay has as its target PAI-1 (Homo sapiens, UniProt P05121). Nature of the assay: biochemical. The class given is biochemical. To be noted: for IC50: PAI chromogenic substrate assay. In outline:
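Compound preincubated with PAI-1 before addition to a tPA system; residual tPA converts plasminogen to plasmin, which cleaves chromogenic substrate S2251. Released p-nitroaniline read at 405 nm; values given as % inhibition at set concentrations or IC50.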

Where a name gives a salt, the structure may show the parent alone.

Sequence of PAI-1 (P05121 24-402): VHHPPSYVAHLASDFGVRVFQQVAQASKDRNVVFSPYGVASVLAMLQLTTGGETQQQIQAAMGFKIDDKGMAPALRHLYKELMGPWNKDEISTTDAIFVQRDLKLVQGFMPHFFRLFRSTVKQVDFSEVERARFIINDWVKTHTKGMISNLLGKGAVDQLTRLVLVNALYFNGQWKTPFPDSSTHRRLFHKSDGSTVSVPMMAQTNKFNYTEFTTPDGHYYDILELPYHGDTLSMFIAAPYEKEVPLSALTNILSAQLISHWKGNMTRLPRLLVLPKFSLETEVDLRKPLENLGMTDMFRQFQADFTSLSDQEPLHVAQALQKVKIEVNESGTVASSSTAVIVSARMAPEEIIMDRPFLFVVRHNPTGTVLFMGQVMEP

Broadly, the % Inhibition is the relative decrease from the control value, in per cent. A lower % Inhibition goes with a weak effect. Broadly, the IC50 is the concentration at which inhibition is half-maximal. A high value points to weaker potency in that assay. In turn, `CN(C)CCSc1ccc(/C=c2\[nH]c(=O)/c(=C/c3ccnc4ccccc34)[nH]c2=O)s1` [Compound 5307, (3Z,6Z)-6-(5-(2-Dimethylaminoethylthio)-2-thienyl)methylene-3-(4-quinolylmethylene)-2,5-piperazinedione] showed an IC50 of 8.5 µM. For the setting “20 μm”, the “% Inhibition” value is recorded as 83%. In addition, under “100 μm”, the “% Inhibition” value turned out to be 88%.

With `CN(C)CCSc1ccc(/C=c2\[nH]c(=O)/c(=C/c3ccncc3)[nH]c2=O)s1` [Compound 5472, (3Z,6Z)-6-(5-(2-Dimethylaminoethylthio)-2-thienyl)methylene-3-(4-pyridylmethylene)-2,5-piperazinedione], the “% Inhibition” value is, setting by setting: (5 μm) 0%; (20 μm) 22%.

The molecule `CN(C)CCSc1ccc(/C=c2\[nH]c(=O)/c(=C/c3cccc(Cl)c3)[nH]c2=O)cc1` [Compound 5292.HCl, (3Z,6Z)-3-(3-Chlorobenzylidene)-6-(4-(2-dimethylaminoethylthio)benzylidene)-2,5-piperazinedione] gave an IC50 of 2 µM.

As to `CN(C)CCSc1ccc(/C=c2\[nH]c(=O)/c(=C/c3ccc(C(C)(C)C)cc3)[nH]c2=O)cc1` [Compound 5440.HCl, (3Z,6Z)-3-(4-(2-Dimethylaminoethylthio)benzylidene)-6-(4-tert-butylbenzylidene)-2,5-piperazinedione], the “% Inhibition” value is 20% (5 μm) and 36% (20 μm).

With `CN(C)CCSc1ccc(/C=c2\[nH]c(=O)/c(=C/c3cccc(C(F)(F)F)c3)[nH]c2=O)cc1` [Compound 5423, (3Z,6Z)-6-(4-(2-Dimethylaminoethylthio)benzylidene)-3-(3-trifluoromethylbenzylidene)-2,5-piperazinedione], the “% Inhibition” value (20 μm) is reported as 11%.

Molecule `CN(C)CCSc1ccc(/C=c2\[nH]c(=O)/c(=C/c3ccc(Br)cc3)[nH]c2=O)s1` [Compound 5489.HCl, (3Z,6Z)-6-(4-Bromobenzylidene)-3-(5-(2-dimethylaminoethylthio)-2-thienyl)methylene-2,5-piperazinedione] came in with an IC50 of 12.6 µM. Further, the “% Inhibition” value (5 μm) is 9%. Further, where the note is “20 μm”, the “% Inhibition” value is 55%.

As for `CN(C)CCSc1ccc(/C=c2\[nH]c(=O)/c(=C/c3cccc(C#N)c3)[nH]c2=O)cc1` [Compound 5476.HCl, (3Z,6Z)-3-(3-Cyanobenzylidene)-6-(4-(2-dimethylaminoethylthio)benzylidene)-2,5-piperazinedione], the “% Inhibition” value is, setting by setting: (5 μm) 11%; (20 μm) 34%.

`CN(C)CCSc1ccc(/C=c2\[nH]c(=O)/c(=C/c3ccccc3)[nH]c2=O)cc1[N+](=O)[O-]` [Compound 5400, (3Z,6Z)-6-Benzylidene-3-(4-(2-dimethylaminoethylthio)-3-nitrobenzylidene)-2,5-piperazinedione] returned an IC50 of 4.5 µM. Moreover, the “% Inhibition” value (5 μm) was 61%. In addition, the “% Inhibition” value (20 μm) is 60%.

For `CN(C)CCSc1ccc(/C=c2\[nH]c(=O)/c(=C/c3ccccc3Br)[nH]c2=O)s1` [Compound 5313.HCl, (3Z,6Z)-6-(2-Bromobenzylidene)-3-(5-(2-dimethylaminoethylthio)-2-thienyl)methylene-2,5-piperazinedione], the IC50 was 20 µM.

Take `COC(=O)c1ccc(/C=c2\[nH]c(=O)/c(=C/c3ccc(SCCN(C)C)s3)[nH]c2=O)cc1` [Compound 5477.HCl, (3Z,6Z)-3-(5-(2-Dimethylaminoethylthio)-2-thienyl)methylene-6-(4-methoxycarbonylbenzylidene)-2,5-piperazinedione]: the IC50 worked out at 15.4 µM. In addition, where the note is “5 μm”, the “% Inhibition” value is 19%. For the setting “20 μm”, the “% Inhibition” value was determined as 69%.

The molecule `CN(C)CCSc1ccc(/C=c2\[nH]c(=O)/c(=C/c3ccsc3)[nH]c2=O)s1` [Compound 5257, (3Z,6Z)-3-(5-(2-Dimethylaminoethylthio)-2-thienyl)methylene-6-(3-thienyl)methylene-2,5-piperazinedione] returned an IC50 of 7 µM. Further, the “% Inhibition” value (20 μm) was 77%. For the same molecule, the “% Inhibition” value (100 μm) was 41%.

The molecule `COc1cccc(/C=c2\[nH]c(=O)/c(=C/c3ccc(SCCN(C)C)s3)[nH]c2=O)c1` [Compound 5314.HCl, (3Z,6Z)-3-(5-(2-Dimethylaminoethylthio)-2-thienyl)methylene-6-(3-methoxybenzylidene)-2,5-piperazinedione] showed an IC50 of 9.5 µM.

In turn, `CN(C)CCSc1ccc(/C=c2\[nH]c(=O)/c(=C/c3cccc(Br)c3)[nH]c2=O)cc1` [Compound 5425.HCl, (3Z,6Z)-3-(3-Bromobenzylidene)-6-(4-(2-dimethylaminoethylthio)benzylidene)-2,5-piperazinedione] returned an IC50 of 2.2 µM. For the same molecule, the “% Inhibition” value (5 μm) was 56%. Where the note is “20 μm”, the “% Inhibition” value was determined as 47%.

Take `CC(C)N(CCSc1ccc(/C=c2\[nH]c(=O)/c(=C/c3ccccc3)[nH]c2=O)s1)C(C)C` [Compound 5399, (3Z,6Z)-6-Benzylidene-3-(5-(2-diisopropylaminoethylthio)-2-thienyl)methylene-2,5-piperazinedione]: the “% Inhibition” value (5 μm) is reported as 23% and the “% Inhibition” value (20 μm) amounted to 43%.

On to `CC(C)/C=c1\[nH]c(=O)/c(=C/c2ccc(SCCN(C)C)s2)[nH]c1=O` [Compound 5448, (3Z,6Z)-3-(5-(2-Dimethylaminoethylthio)-2-thienyl)methylene-6-(2-methylpropylidene)-2,5-piperazinedione], for which the “% Inhibition” value is, setting by setting: (5 μm) 0%; (20 μm) 0%.

For the molecule `CN(C)CCSc1ccc(/C=c2\[nH]c(=O)/c(=C/c3ccc4c(c3)OCO4)[nH]c2=O)s1` [Compound 5279.HCl, (3Z,6Z)-3-(5-(2-Dimethylaminoethylthio)-2-thienyl)methylene-6-(3,4-methylenedioxybenzylidene)-2,5-piperazinedione], the midpoint of inhibition, the IC50, lay at 13 µM.

As for `COc1cc(/C=c2\[nH]c(=O)/c(=C/c3ccc(SCCN(C)C)cc3)[nH]c2=O)ccc1OCc1ccc([N+](=O)[O-])cc1` [Compound 5490.HCl, (3Z,6Z)-6-(4-(2-Dimethylaminoethylthio)benzylidene)-3-(3-methoxy-4-(4-nitrobenzyloxy)benzylidene)-2,5-piperazinedione], the IC50 worked out at 10.8 µM. The “% Inhibition” value (5 μm) is on record as 12%. Where the note is “20 μm”, the “% Inhibition” value was 66%.

Regarding `CN(C)CCSc1ccc(/C=c2\[nH]c(=O)/c(=C/CC(C)(C)C)[nH]c2=O)s1` [Compound 5502, (3Z,6Z)-3-(5-(2-Dimethylaminoethylthio)-2-thienyl)methylene-6-(3,3-dimethyl-1-butylidene)-2,5-piperazinedione], the IC50 was more than 20 µM. Further, for the setting “5 μm”, the “% Inhibition” value is 0%. Under “20 μm”, the “% Inhibition” value was found to be 12%.

Molecule `Cc1ccc(/C=c2\[nH]c(=O)/c(=C/c3ccc(SCCN(C)C)cc3)[nH]c2=O)cc1` [Compound 5463.HCl, (3Z,6Z)-3-(4-(2-Dimethylaminoethylthio)benzylidene)-6-(4-methylbenzylidene)-2,5-piperazinedione] showed an IC50 of 3.1 µM. Further, the “% Inhibition” value (5 μm) worked out at 78%. Besides, under “20 μm”, the “% Inhibition” value was 80%.

As to `Cc1ccc(/C=c2\[nH]c(=O)/c(=C/c3ccc(SCCN(C)C)s3)[nH]c2=O)cc1` [Compound 5460, (3Z,6Z)-3-(5-(2-Dimethylaminoethylthio)-2-thienyl)methylene-6-(4-methylbenzylidene)-2,5-piperazinedione], the IC50 amounted to 12.2 µM. Also, the “% Inhibition” value (5 μm) is reported as 34%. Also, the “% Inhibition” value (20 μm) stood at 83%.

As for `COc1cc(/C=c2\[nH]c(=O)/c(=C/c3ccc(SCCN(C)C)s3)[nH]c2=O)ccc1OCc1ccc([N+](=O)[O-])cc1` [Compound 5488, (3Z,6Z)-3-(5-(2-Dimethylaminoethylthio)-2-thienyl)methylene-6-(3-methoxy-4-(4-nitrobenzyloxy)benzylidene)-2,5-piperazinedione], the IC50 was found to be 8.2 µM. Besides, the “% Inhibition” value (5 μm) came to 14%. Besides, the “% Inhibition” value (20 μm) stood at 64%.

Molecule `COC(=O)c1ccc(/C=c2\[nH]c(=O)/c(=C/c3ccc(SCCN(C)C)s3)[nH]c2=O)cc1` [Compound 5477, (3Z,6Z)-3-(5-(2-Dimethylaminoethylthio)-2-thienyl)methylene-6-(4-methoxycarbonylbenzylidene)-2,5-piperazinedione] gave an IC50 of 20 µM. The “% Inhibition” value (5 μm) is given as 10%. For the same molecule, the “% Inhibition” value (20 μm) was 59%.

Turning to `CN(C)CCSc1ccc(/C=c2\[nH]c(=O)/c(=C/c3cccc(Cl)c3)[nH]c2=O)cc1` [Compound 5292, (3Z,6Z)-3-(3-Chlorobenzylidene)-6-(4-(2-dimethylaminoethylthio)benzylidene)-2,5-piperazinedione], 3 µM corresponded to half-maximal inhibition (IC50).

Take `CN(C)CCSc1ccc(/C=c2\[nH]c(=O)/c(=C/C3CCCCC3)[nH]c2=O)s1` [Compound 5454.HCl, (3Z,6Z)-6-Cyclohexylmethylene-3-(5-(2-dimethylaminoethylthio)-2-thienyl)methylene-2,5-piperazinedione]: half-maximal inhibition (IC50) required 5.3 µM. Also, the “% Inhibition” value (5 μm) is reported as 25%. Further, the “% Inhibition” value (20 μm) is recorded as 69%.

`CN(C)CCSc1ccc(/C=c2\[nH]c(=O)/c(=C/c3ccc4c(c3)OCO4)[nH]c2=O)cc1` [Compound 5491, (3Z,6Z)-6-(4-(2-Dimethylaminoethylthio)benzylidene)-3-(3,4-methylenedioxybenzylidene)-2,5-piperazinedione] registered an IC50 of 14.2 µM. For the same molecule, the “% Inhibition” value (5 μm) is reported as 0%. Moreover, the “% Inhibition” value (20 μm) was found to be 65%.

For `CN(C)CCSc1ccc(/C=c2\[nH]c(=O)/c(=C/c3ccccc3Br)[nH]c2=O)s1` [Compound 5313, (3Z,6Z)-6-(2-Bromobenzylidene)-3-(5-(2-dimethylaminoethylthio)-2-thienyl)methylene-2,5-piperazinedione], the “% Inhibition” value (20 μm) was 10%.

Regarding `CN(C)CCSc1ccc(/C=c2\[nH]c(=O)/c(=C/c3ccc4c(c3)CCO4)[nH]c2=O)s1` [Compound 5311.HCl, (3Z,6Z)-3-(2,3-dihydro-5-benzofuranyl)methylene-6-(5-(2-dimethylaminoethylthio)-2-thienyl)methylene-2,5-piperazinedione], the half-maximal inhibitory concentration (IC50) came to 20 µM. This lies in the double-digit micromolar range.

For the origin of these results see patent US5750530A, “Pharmaceutical diketopiperazine compounds” (Xenova Limited, priority 1994, dated 1998).
